Paper PMC4783973, “Synthetic Human TLR9-LRR11 Peptide Attenuates TLR9 Signaling by Binding to and thus Decreasing Internalization of CpG Oligodeoxynucleotides” (International Journal of Molecular Sciences, 2016)

Key:
RAW264.7 cells [1] = assay: TNF-α and IL-6 release from RAW264.7 cells, both cytokines stated together (ELISA); type: cell-based, mouse
Experimental: Figure 1 Synthetic peptide (SP) decreased TNF-α and IL-6 release from RAW264.7 cells treated with CpG oligodeoxynucleotides (CpG ODN). RAW264.7 cells (4.0 × 10^5 cells) grown in 48-well plates were treated with 1.5 μM of ODN2006 or ODN107 preincubated with SP (0, 0.5, 1.5, or 4.5 μM) or unrelated peptide (URP) (4.5 μM) at 37 °C for 15 min. After incubation for 6 h, the supernatants were collected to detect TNF-α (A) and IL-6 (B) using enzyme-linked immunosorbent assay (ELISA) kits. Data from one of three independent experiments are shown (n = 4). “*”, p < 0.05 vs. ODN2006 or ODN107; “**”, p < 0.01 vs. ODN2006 or ODN107; “#”, p > 0.05 vs. ODN2006 or ODN107.
Experiments were performed as described in Figure 1. The concentrations of ODN2006, LPS, PAM3 and SP were 1.5 μM, 20 ng/mL, 5 μg/mL and 1.5 μM, respectively. Data from one of three independent experiments are shown (n = 3).
(§1) The RAW264.7 cell line was purchased from American Type Culture Collection (ATCC, Manassas, VA, USA). Cells were cultured in DMEM (high glucose) medium containing 10% FCS in a 37 °C humidified atmosphere with 5% CO2. Cells diluted with 0.4% trypan blue in phosphate-buffered saline (PBS, 0.1 mM, pH 7.2–7.4) were counted using a hemocytometer.
RAW264.7 cells (4.0 × 10^5 cells) were incubated in 48-well plates for 4 h, and supernatants were replaced with 0.4 mL of serum-free DMEM medium containing 1.5 μM of ODN2006 or ODN107, which had been preincubated with 0, 0.5, 1.5 or 4.5 μM of SP or 4.5 μM of URP at 37 °C for 15 min. After incubation for 6 h, the supernatants were collected to detect TNF-α and IL-6 concentrations using corresponding ELISA kits (eBioscience).

IκBα = IκBα degradation and phosphorylation in RAW264.7 cells (western blotting); type: cell-based; conditions: ODN2006 1.5 μM; 4 h
Experimental: Figure 4 Synthetic peptide (SP) decreased the phosphorylation of IκBα and ERK1/2 in RAW264.7 cells treated with CpG oligodeoxynucleotides (CpG ODN). RAW264.7 cells (1.0 × 10^7 cells) grown in 10-cm dishes were treated with 1.5 μM of ODN2006 (A) or ODN107 (B) pre-incubated with SP (0, 0.5, 1.5, or 4.5 μM) at 37 °C for 15 min. After incubation for 4 h, cells were harvested to extract total protein; and the protein expressions of IκBα, phosphorylated (p)-IκBα, ERK1/2 and p-ERK1/2 were detected by western blotting. Data from one of three independent experiments are shown.
as §1
RAW264.7cells (1.0 × 10^7 cells) were incubated in dishes for 4 h, and the supernatants were replaced with fresh medium containing 1.5 μM of ODN2006 that had been preincubated with 0.5, 1.5 or 4.5 μM of SP for 15 min. Cells were sequentially cultured for another 4 h and then harvested to extract total proteins. Equal amounts of proteins from each treatment were separated by SDS-PAGE, and transferred onto 0.22 μm PVDF membranes (Bio-Rad). […]

NF-κB p65 subunit = assay: NF-κB activity assay, p65 subunit in nuclear extract of RAW264.7 cells (Trans^AM ELISA); type: cell-based; conditions: 4 h, n = 3
Experimental: Figure 3 Synthetic peptide (SP) inhibited NF-κB activation induced by CpG oligodeoxynucleotides (CpG ODN) in RAW264.7 cells. RAW264.7 cells (5.0 × 10^6 cells) grown in six-well plates were treated with 1.5 μM of ODN2006 (A) or ODN107 (B) preincubated with SP (0, 0.5, 1.5, or 4.5 μM) or unrelated peptide (URP) (4.5 μM) at 37 °C for 15 min. After incubation for 4 h, the cells were collected to extract nuclear proteins. The p65 subunit was detected using enzyme-linked immunosorbent assay (ELISA) kits. Data from one of three independent experiments are shown (n = 3). “*”, p < 0.05 vs. ODN2006 or ODN107; “**”, p < 0.01 vs. ODN2006 or ODN107; “#”, p > 0.05 vs. ODN2006 or ODN107.
as §1
RAW264.7 cells (5.0 × 10^6 cells) were placed in six-well plates for 4 h, and the supernatants were then replaced with fresh medium containing 1.5 μM of ODN2006 or ODN107 that had been preincubated with SP (0, 0.5, 1.5, or 4.5 μM) or URP (4.5 μM) at 37 °C for 15 min. After incubation for 4 h, the cells were collected to extract nuclear proteins. Equal amounts of each sample were used to detect the DNA binding activity of the NF-κB p65 subunit using Trans^AM NF-κB ELISA kits (Active Motif), according to the manufacturer’s instructions.

RAW264.7 cells [2] = assay: competitive internalization experiment with non-labeled ODN2006, confocal; type: cell-based; conditions: SP 1.5 μM, FAM-2006 1.5 μM, 30 min, n = 100
Experimental: However, the results could not exclude the possibility that SP might act on FAM not ODN2006 itself. Therefore, a competitive internalization experiment using non-labeled ODN2006 was performed. Non-labeled ODN2006 and FAM-2006 have same ability to bind SP, but FAM had no such ability. If SP specifically acted on ODN2006, non-labeled ODN2006 might increase FAM-2006 internalization, and the intracellular fluorescence intensity would increase. […] Therefore, FAM-2006 could completely enter the cells, resulting in a subsequent increase in intracellular fluorescence.
Figure 7 Non-labeled ODN2006 restored internalization of FAM-labeled ODN2006 preincubated with synthetic peptide (SP) (Scale bar = 20 μm). […] The intracellular FAM-2006 (green) (A), mean fluorescence intensity (MFI) values (B) and the percentages of cells with FAM-2006 dots (green fluorescence) (C) were observed as described in Figure 5 (n = 100). […]
RAW264.7 cells (1.0 × 10^6 cells) were grown on 2-cm glass bottom dishes for 4 h, and supernatants were replaced with 1 mL of serum-free DMEM medium containing FAM-2006 (1.5 μM) that had been pre-incubated with SP (0, 0.5, 1.5 or 4.5 μM) at 37 °C for 15 min. […] The intracellular FAM-2006 (green fluorescence) was observed using a laser confocal microscope. Mean fluorescence intensity (MFI) values were calculated by the ZEN lite 2012 software.

IκBα and ERK1/2 = conditions: LPS-induced; ref [22]; cited from earlier work
Excerpt: (§2) NF-κB is one of the most important inflammatory switches that comprise a series of transcription factors that regulate the expressions of various proinflammatory cytokines (IL-1, IL-6, IL-8 and TNF-α). NF-κB activation is depended on the degradation and phosphorylation of IκBα [12].

[3] = test system: LPS-induced cytokine release; conditions: by decreasing both IκBα and ERK1/2 phosphorylation; ref [22]; cited from earlier work
RAW264.7 cells [4] = assay: FAM-2006 internalization within RAW264.7 cells, laser confocal scanning; type: cell-based; conditions: peptide 4.5 μM preincubated with FAM-2006 1.5 μM; 30 min; n = 100
Experimental: Figure 5 Synthetic peptide (SP) inhibited ODN2006 internalization, as assessed using laser confocal scanning (Scale bar = 20 μm). RAW264.7 cells (1 × 10^6 cells) grown on 2-cm glass bottom dishes were treated with normal medium, 1.5 μM of FAM-labeled ODN2006 (FAM-2006) that had been preincubated with SP (0, 0.5, 1.5 or 4.5 μM) or unrelated peptide (URP; 4.5 μM) at 37 °C for 15 min. After treatment for 30 min, cells were washed with warm phosphate buffered saline (PBS) and fixed with 4% (m/v) paraformaldehyde, then stained with DAPI (4′,6-diamidino-2-phenylindole) (blue). The intracellular FAM-2006 (green) was observed using a laser confocal microscope (A); Mean fluorescence intensity (MFI) values (B) and the percentages of cells with FAM-2006 dots (green fluorescence) (C) were calculated by the ZENlite 2012 software (n = 100). “**”, p < 0.01; “#”, p > 0.05 vs. FAM-2006 alone.
as §1, with “hemocytometer. […]” for “hemocytometer.”

ODN2006 = assay: IAsys biosensor binding to immobilized biotinylated ODN2006; conditions: IAsys Plus biosensor; peptide 50 μM
Experimental: Figure 8 Synthetic peptide (SP) specifically binds ODN2006. (A) Binding curves generated by the IAsys biosensor. Biotinylated ODN2006 was immobilized on the surface of a streptavidin-coated cuvette. A series of concentration of SP (3.1, 6.3, 12.5, 25 or 50 μM) or unrelated peptide (URP) (50 μM) were added separately into the cuvette to generate the binding curves. Data were analyzed using FASTplot, and the dissociation equilibrium constant (KD) of SP was calculated using FASTfit; (B) Binding curves generated by the Biacore biosensor. Biotinylated ODN2006 was immobilized on a streptavidin-coated chip, and then a series of concentrations of SP (0.63, 1.25, 2.5, 5 or 10 μM) or URP (10 μM) were loaded separately to generate the binding curves. Data analysis and KD calculation were performed using the BIAevaluation software.
The affinity assay was firstly carried out using an IAsys Plus affinity biosensor (Thermo Labsystem, Altrincham, Cheshire, UK), according to our previous report. Biotinylated ODN2006 was immobilized on the surface of a streptavidin-coated cuvette according to the user manual. […] Binding curves were analyzed and visualized using FASTplot (Thermo), and the dissociation equilibrium constant (KD) of SP with ODN2006 was calculated using FASTfit (Thermo).

[5] = test system: IκBα phosphorylation and NF-κB activation; conditions: ref [19],[20]; cited from earlier work
Excerpt: as §2

[6] = test system: CpG ODN-induced cytokine release; conditions: ref [19],[20]; cited from earlier work
Excerpt: CpG ODN-induced diseases, such as sepsis and some autoimmune disorders, are triggered by uncontrolled release of proinflammatory cytokines, e.g., TNF-α and IL-6 [18]. […] Herein, we firstly evaluated the inhibitory effect of SP on CpG ODN-induced cytokine release in the cellular tests. Tw ... || NF-κB is one of the most important inflammatory switches that comprise a series of transcription factors that regulate the expressions of various proinflammatory cytokines (IL-1, IL-6, IL-8 and TNF-α). NF-κB activation is depended on the degradation and phosphorylation of IκBα [12].

5′-TCGTCGTTTTGTCGTTTTGTCGTT-3′ [ODN2006]
effect on TNF-α and IL-6 release (CpG ODN stimulation) (RAW264.7 cells [1]; CpG ODN 1.5 μM, 6 h, n = 4 (Figure 1)): significantly increased | effect on TNF-α and IL-6 release (stimulation) (RAW264.7 cells [1]; ODN2006 1.5 μM, n = 3 (Figure 2)): significantly increased | levels of IκBα phosphorylation and degradation (CpG ODN stimulation) (IκBα): significantly increased | effect on activation of p65 (CpG ODN stimulation) (NF-κB p65 subunit; CpG ODN 1.5 μM): significantly increased | MFI and percentage of cells with green fluorescence (FAM-2006 + SP, competition) (RAW264.7 cells [2]; non-labeled ODN2006 0, 0.5, 1.5 or 4.5 μM, dose-dependent): increased the MFI and the percentage of cells with green fluorescence | restoration of FAM-2006 internalization (competition) (RAW264.7 cells [2]; non-labeled ODN2006 4.5 μM): completely restore cell internalization of FAM-2006

COc1ccc(/C=C/c2cc(O)cc(O)c2)cc1 [desoxyrhapontigenin]
effect on IκBα and ERK1/2 phosphorylation (IκBα and ERK1/2): decreasing both of IκBα and ERK1/2 phosphorylation | effect on LPS-induced cytokine release [3]: inhibited LPS-induced cytokine release

LQTLDLRDNALTTIHFIPSIPD [URP, unrelated peptide derived from LRR14 of human TLR5, used as negative control]
effect of peptide alone on TNF-α and IL-6 release (RAW264.7 cells [1]; peptide alone, without CpG ODN, 6 h): no influence on cytokines release | mean fluorescence intensity (MFI) produced by FAM-2006 within the cells (RAW264.7 cells [4]): no such effect | effect of peptide alone on p65 activation (NF-κB p65 subunit; peptide alone 4.5 μM): no effect | binding response to ODN2006 (ODN2006): no such response

kukoamine B
effect on IκBα phosphorylation and NF-κB activation [5]: inhibitors of IκBα phosphorylation and NF-κB activation | effect on CpG ODN-induced cytokine release [6]: inhibitors of CpG ODN-induced cytokine release | effect on proinflammatory cytokines [6]: inhibited proinflammatory cytokines
